Entries after “also recorded” stand apart in the source; their conditions may differ.
Key:
Assay type in all cases: cell-based
Met = molecular target: T1, Met (Homo sapiens, UniProt P08581); assay: Met autophosphorylation and expression in TPC-1 cells (IP/Western blotting)
T1 construct: endogenous in cells; host or cells: TPC-1 (human papillary thyroid carcinoma)
Procedure: FIG. 4. Inhibition of Met autophosphorylation and expression in human papillary thyroid carcinoma cells (TPC-1) treated with Cpd1. A): TPC-1 cells were exposed to solvent (−) or the indicated concentrations of Cpd 1 for 72 h. Equal amounts of protein were used for immunoprecipitation (IP) with anti-Met antibody or for the preparation of whole cell lysates (WCL). Immunoprecipitated proteins and WCLs were separated by SDS-PAGE, transferred to nitrocellulose membranes, and subjected to Western blotting with anti-pTyr or anti-Met antibodies. B): Cells were treated as in A. Cell extracts were immunoprecipitated with anti-pTyr antibody and probed with anti-Met antibody. C): Cells were serum-starved for 24 h and exposed to solvent or Cpd1 (60 μM) during the last 18 h. Then they were left untreated (−) or stimulated with 20 ng/ml HGF (+), for 10 min. Cell lysates were immunoprecipitated with anti-Met and probed with anti-pTyr or anti-Met antibody. Drug treatment abolished the constitutive or HGF-induced Met tyrosine phosphorylation and induced a reduction of Met expression.
The following human medullary thyroid carcinoma (MTC) cell lines were used in this study. The TT cell line derived from a MEN2A-associated MTC characterized by expression of the RET oncogene carrying the mutation C634W. The MZ-CRC-1 cell line derived from MEN2B-associated MTC characterized by expression of the RET oncogene carrying the mutation M918T. TT cells were cultivated in Ham's F12 medium (BioWhittaker, Verviers, Belgium) supplemented with 15% fetal calf serum (FCS) (Life Technologies, Inc., Gaithersburg, Md.) whereas MZ-CRC-1 cells were grown in Dulbecco's modified Eagle's medium (DMEM) (BioWhittaker) supplemented with 10% FCS. The human papillary thyroid carcinoma cell line TPC-1 which was used as a model of Met overexpression, was routinely cultivated in DMEM with 10% FCS. […]
(§1) For immunoprecipitation experiments, cells were treated with Cpd1 or solvent for the indicated times. […] Protein concentration was determined by the BCA reagent (Pierce). […]

Kit (Δ559) = molecular target: T2, Kit (Δ559) (Homo sapiens, UniProt P10721, DEL559-559); assay: Kit (Δ559) autophosphorylation and expression in NIH3T3 transfectants; conditions: 72 h
T2 construct: expressed in transfected cells; host or cells: NIH3T3 (mouse fibroblasts)
T2 sequence (P10721 with tags, fused parts or gaps DEL559-559): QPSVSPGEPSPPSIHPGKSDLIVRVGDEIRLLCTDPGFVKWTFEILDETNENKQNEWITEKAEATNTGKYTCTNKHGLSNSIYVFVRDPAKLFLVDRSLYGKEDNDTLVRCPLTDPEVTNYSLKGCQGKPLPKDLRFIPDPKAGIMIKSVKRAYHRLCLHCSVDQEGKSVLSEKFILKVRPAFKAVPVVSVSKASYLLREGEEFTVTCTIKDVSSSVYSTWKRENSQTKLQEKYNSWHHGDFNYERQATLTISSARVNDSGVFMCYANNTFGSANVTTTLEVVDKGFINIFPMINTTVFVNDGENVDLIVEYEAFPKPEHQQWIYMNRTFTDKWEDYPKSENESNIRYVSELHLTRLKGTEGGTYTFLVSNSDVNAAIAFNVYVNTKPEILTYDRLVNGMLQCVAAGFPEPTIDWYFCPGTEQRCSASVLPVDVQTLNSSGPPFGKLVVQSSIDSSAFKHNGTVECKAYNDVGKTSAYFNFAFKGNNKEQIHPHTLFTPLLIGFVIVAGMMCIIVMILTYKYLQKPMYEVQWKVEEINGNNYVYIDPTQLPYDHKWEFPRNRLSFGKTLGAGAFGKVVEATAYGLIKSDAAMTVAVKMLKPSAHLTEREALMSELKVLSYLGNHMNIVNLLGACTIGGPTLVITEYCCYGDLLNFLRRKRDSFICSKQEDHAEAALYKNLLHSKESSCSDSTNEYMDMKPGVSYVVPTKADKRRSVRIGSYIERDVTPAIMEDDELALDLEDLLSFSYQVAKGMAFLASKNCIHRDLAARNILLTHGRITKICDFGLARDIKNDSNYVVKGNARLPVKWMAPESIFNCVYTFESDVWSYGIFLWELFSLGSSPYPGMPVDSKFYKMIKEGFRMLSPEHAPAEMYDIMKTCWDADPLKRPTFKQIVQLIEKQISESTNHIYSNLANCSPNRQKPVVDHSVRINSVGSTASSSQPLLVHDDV
Procedure: FIG. 7. Effects of Cpd1 on cell lines expressing constitutively activated forms of Kit. […] Cells were treated with 20 μM Cpd1 and photographed 24 h later under a phase-contrast microscope (original magnification X 100). B): Inhibition of Kit (Δ559) autophosphorylation and expression in NIH3T3 transfectants. Cells were treated with Cpd 1 at the indicated concentrations, for 72 h. Cell lysates were immunoprecipitated with anti-Kit antibody and subjected to Western blotting with anti-p-Tyr or anti-Kit antibodies. C): Inhibition of expression and autocrine loop-activated autophosphorylation of c-Kit in the SCLC cell line N592. Cells were treated with Cpd 1 at the indicated concentrations, for 24 h. Whole cell lysates were subjected to Western blotting with anti-Kit antibody or with an antibody specifically recognizing the tyrosine phosphorylated/activated Kit (p-Kit).
The following human medullary thyroid carcinoma (MTC) cell lines were used in this study. The TT cell line derived from a MEN2A-associated MTC characterized by expression of the RET oncogene carrying the mutation C634W. The MZ-CRC-1 cell line derived from MEN2B-associated MTC characterized by expression of the RET oncogene carrying the mutation M918T. […]
as §1

FGF-R1 = molecular target: T3, FGF-R1 (Mus musculus, UniProt P16092); assay: FGF-R1 autophosphorylation and expression in Swiss3T3 cells; conditions: 18 h
T3 construct: endogenous in cells; host or cells: Swiss3T3 (mouse fibroblasts)
T3 sequence (P16092 22-822): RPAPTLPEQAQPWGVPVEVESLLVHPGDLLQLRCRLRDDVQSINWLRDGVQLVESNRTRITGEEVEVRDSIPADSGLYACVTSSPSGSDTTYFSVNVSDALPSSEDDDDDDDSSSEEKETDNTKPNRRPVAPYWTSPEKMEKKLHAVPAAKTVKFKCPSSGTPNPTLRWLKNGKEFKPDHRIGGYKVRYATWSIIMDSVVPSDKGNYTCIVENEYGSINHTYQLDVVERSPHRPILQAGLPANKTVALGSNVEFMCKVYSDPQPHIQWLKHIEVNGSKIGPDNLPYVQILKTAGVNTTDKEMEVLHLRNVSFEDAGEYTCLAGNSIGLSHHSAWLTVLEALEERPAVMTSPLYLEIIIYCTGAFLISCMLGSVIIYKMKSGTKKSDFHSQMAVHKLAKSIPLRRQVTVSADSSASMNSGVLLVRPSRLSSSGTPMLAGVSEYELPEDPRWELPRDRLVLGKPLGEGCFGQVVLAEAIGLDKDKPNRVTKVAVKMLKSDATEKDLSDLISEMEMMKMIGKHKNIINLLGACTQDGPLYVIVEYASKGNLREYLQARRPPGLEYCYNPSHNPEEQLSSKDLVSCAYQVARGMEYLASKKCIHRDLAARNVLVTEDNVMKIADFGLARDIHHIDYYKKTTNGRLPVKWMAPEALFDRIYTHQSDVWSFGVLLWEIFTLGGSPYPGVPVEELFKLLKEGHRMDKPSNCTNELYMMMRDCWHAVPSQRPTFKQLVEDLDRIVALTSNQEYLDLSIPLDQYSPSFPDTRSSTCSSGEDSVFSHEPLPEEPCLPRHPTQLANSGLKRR
Procedure: FIG. 6. Inhibition of autophosphorylation and expression of FGF-R1 and FGF-R3 receptors in whole cells by Cpd1. A): Swiss3T3 cells were serum starved for 24 h and then treated with Cpd1 at the indicated concentrations, for 18 h. After stimulation with 100 ng/ml FGF for 5 min, whole cell lysates were prepared and subjected to Western blotting with anti-pTyr or anti-FGF-R1. Protein loading by anti-actin blot is shown. B): NIH3T3 transformed by the FGF-R3 mutant Y373C were treated with the indicated concentrations, for 72 h. Cell extracts were immunoprecipitated with anti-FGF-R3 and then subjected to Western blotting with anti p-Tyr or anti-FGF-R3.
The following human medullary thyroid carcinoma (MTC) cell lines were used in this study. The TT cell line derived from a MEN2A-associated MTC characterized by expression of the RET oncogene carrying the mutation C634W. […]
For whole-cell extract preparation, cells were lysed in sodium dodecyl sulfate (SDS) sample buffer (62.5 mM Tris-HCl (pH 6.8), 2% SDS) with 1 mM PMSF, 10 μg/ml pepstatin, 12.5 μg/ml leupeptin, 100 KIU aprotinin, 1 mM sodium orthovanadate, 1 mM sodium molybdate. Protein concentration was determined in appropriately diluted aliquots by the bicinchionic acid (BCA) method (Pierce, Rockford, Ill.), then samples were adjusted to a final concentration of 10% glycerol, 5% β-mercaptoethanol, 0.001% bromophenol blue. […]

T1 sequence (P08581 25-1390): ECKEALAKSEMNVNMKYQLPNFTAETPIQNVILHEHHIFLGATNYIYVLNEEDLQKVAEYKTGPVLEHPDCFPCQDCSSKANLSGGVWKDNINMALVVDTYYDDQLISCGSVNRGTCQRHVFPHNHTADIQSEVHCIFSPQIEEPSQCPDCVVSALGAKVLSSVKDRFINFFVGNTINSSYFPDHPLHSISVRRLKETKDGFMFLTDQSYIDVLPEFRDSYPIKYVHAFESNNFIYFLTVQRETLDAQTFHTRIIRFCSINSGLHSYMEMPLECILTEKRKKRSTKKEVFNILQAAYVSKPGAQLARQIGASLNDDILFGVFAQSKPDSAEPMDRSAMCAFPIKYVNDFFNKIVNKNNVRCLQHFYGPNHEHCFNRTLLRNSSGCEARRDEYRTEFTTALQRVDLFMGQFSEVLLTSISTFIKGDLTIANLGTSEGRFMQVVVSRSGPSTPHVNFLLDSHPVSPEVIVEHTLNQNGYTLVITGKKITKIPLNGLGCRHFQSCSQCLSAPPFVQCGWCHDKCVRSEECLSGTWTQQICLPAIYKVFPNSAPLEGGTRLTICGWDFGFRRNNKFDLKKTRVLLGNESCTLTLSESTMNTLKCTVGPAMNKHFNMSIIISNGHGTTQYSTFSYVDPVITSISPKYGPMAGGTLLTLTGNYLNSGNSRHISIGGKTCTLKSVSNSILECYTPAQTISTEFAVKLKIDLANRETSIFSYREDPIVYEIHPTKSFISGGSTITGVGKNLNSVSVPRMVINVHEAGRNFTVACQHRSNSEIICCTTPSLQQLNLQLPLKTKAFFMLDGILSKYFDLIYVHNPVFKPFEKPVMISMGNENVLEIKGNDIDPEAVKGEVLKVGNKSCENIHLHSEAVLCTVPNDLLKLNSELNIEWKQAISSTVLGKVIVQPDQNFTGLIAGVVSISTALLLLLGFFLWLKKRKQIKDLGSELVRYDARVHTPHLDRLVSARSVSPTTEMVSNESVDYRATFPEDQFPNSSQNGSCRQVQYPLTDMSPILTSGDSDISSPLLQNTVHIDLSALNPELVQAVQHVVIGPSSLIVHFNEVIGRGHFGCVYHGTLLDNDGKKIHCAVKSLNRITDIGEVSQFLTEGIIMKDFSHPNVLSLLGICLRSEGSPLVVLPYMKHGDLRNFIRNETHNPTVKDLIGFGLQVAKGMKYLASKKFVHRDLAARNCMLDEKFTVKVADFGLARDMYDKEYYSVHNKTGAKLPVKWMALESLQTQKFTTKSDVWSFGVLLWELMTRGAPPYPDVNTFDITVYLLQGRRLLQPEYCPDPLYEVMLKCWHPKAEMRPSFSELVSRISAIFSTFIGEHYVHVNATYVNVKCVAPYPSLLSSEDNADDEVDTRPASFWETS

## COc1cc2c(cc1OC)/C(=C\c1ccc(O)cc1)C(=O)N2 [Cpd 1, (E)-1,3-dihydro-5,6-dimethoxy-3-[(4-hydroxyphenyl)methylene]-2H-indol-2-one]
Met; TPC-1 cells
  Met expression: reduction
Met; TPC-1 cells serum-starved, 60 μM for 18 h, 20 ng/ml HGF 10 min
  HGF-induced Met tyrosine phosphorylation: abolished
Met; TPC-1 cells, 72 h
  Constitutive Met tyrosine phosphorylation (autophosphorylation): dose-dependent inhibition; also recorded: abolished
Kit (Δ559)
  Kit (Δ559) expression: dose-dependent drug-induced inhibition
  Kit (Δ559) tyrosine phosphorylation: dose-dependent drug-induced inhibition
FGF-R1; Swiss3T3 cells serum starved, 100 ng/ml FGF 5 min
  FGF-R1 tyrosine phosphorylation: dose-dependent inhibition
FGF-R1; Swiss3T3 cells
  FGF-R1 expression: dose-dependent inhibition

Source: patent publication US20090130229A1, “Antitumor uses of compound” (Cell Therapeutics, Inc., priority 2002, published 2009)
